Source: patent US20030113330A1, “Methods for treating pulmonary fibrosis” (priority 1999, published 2003)
Where a SMILES comes first, the peptide text is derived from it. The star is where a group is joined. Cbz = O=C(OCc1ccccc1)*; CH2F = FC*

Legend:
[1] = tested on: A549 cells; experiment: Angiotensin II-induced apoptosis in A549 cells (nuclear fragmentation, PI); assay type: cell-based, human; details: saralasin 50 ug/ml
Description: Cell Culture. […] J. Physiol. Suppl. (Oct.) 261:110-117 (1991) and Uhal et al., Am. J. Physiol. 269:[…]-[…] (1995). […] J. Physiol. 272:[…]-[…] (1997). […] J. Physiol. Suppl. (October) 261:110-117 (1991). […] Detection of Apoptosis. […] J. Physiol. […] Assay of Annexin V binding by flow cytometry was performed essentially as described for human lung fibroblasts in Uhal, et al., Am. J. Physiol. 275:[…]-[…] (1998) after trypsinization of cells from culture vessels. Assay of Caspase-3 activity was performed on viable suspension cultures as reported in Uhal, et al., Am. J. Physiol. 275:[…]-1017 (1998). […] For microscopy, cells were cultured on glass cover slips, incubated with test reagents and fixed with 70% ethanol. The fixed cells were immunolabeled overnight at 4° C. with monoclonal antibodies to cytokeratins 7 and 19 (Chemicon International, Temecula, Calif.), and then for one hour at 37° C. with anti-mouse IgG-rhodamine and DNAse-free RNAse (Boehringer Mannheim, Indianapolis, Ind.) The cover slips were then rinsed in distilled water three times and mounted under Fluoromount Solution (Southern Biotechnology Associates, Birmingham, Ala.) containing 5 ug/ml propidium iodide. Photomicroscopy was performed as described in Uhal, et al., Am. J. Physiol. 275:[…]-1017 (1998). […] The absolute values for basal, i.e., 0.0 dose, apoptosis were: A549 serum-free, 2.29±0.33%; […] AEC serum-free: 1.87±0.41%; and AEC+FBS: 1.97±0.37%.

[2] = tested on: A549 cells; experiment: Amiodarone-induced net cell loss in A549 cultures; assay type: cell-based, human; details: A549
Description: Primary alveolar epithelial cells were isolated from adult male Wistar rats. The primary cells were studied at day two of culture, a time at which they are type II cell-like by accepted morphologic and biochemical criteria. All primary cell preparations were of better than 90% purity assessed by acridine orange staining. All cells were seeded in 24-well or 6-well chambers, and all experiments were conducted at subconfluent densities of 80-90% in serum-free Ham's F12 medium. Test reagents were diluted with Ham's F12 medium and were applied for 20 hours at 37C. in a 5% CO2 incubator.
Importantly, unattached cells were recovered and included in the analyses, and thus the data represent true loss of cells rather than simple detachment from the substratum.

[3] = tested on: A549 cells; details: for inhibition of amiodarone-induced apoptosis: captopril 500 ng/ml, saralasin 50 ug/ml, Losartan 5 pg/ml
Description: (§1) The human lung adenocarcinoma cell line A549 (ATCC) was cultured in Ham's F12 medium supplemented with 10% fetal bovine serum (FBS). Primary alveolar epithelial cells were isolated from adult male Wistar rats. The primary cells were studied at day two of culture, a time at which they are type II cell-like by accepted morphologic and biochemical criteria. […] All cells were seeded in 24-well or 6-well chambers, and all experiments were conducted at subconfluent densities of 80-90% in serum-free Ham's F12 medium. Test reagents were diluted with Ham's F12 medium and were applied for 20 hours at 37C. in a 5% CO2 incubator.
(§2) Apoptotic cells were detected using propidium iodide (PI) following digestion of ethanol-fixed cells with DNAse-free RNAse in PBS containing 5 ug/ml PI. […] In replicate culture vessels, necrosis was detected as the loss of exclusion of PI after application of the vital dye directly to the cell culture medium at 5 ug/ml final concentration. Red fluorescent (PI-POSITIVE) cells (>570 nm) were scored over the subsequent hour as a percentage of the total cells in any given field. A minimum of 4 separate fields were scored in each of three separate culture vessels per experiment condition; all experiments were performed at least twice and the data were compiled. Although all necrotic cells are PI-positive, some apoptotic cells may also take up the dye but these comprise a minor fraction of the total dead cell population.
(§3) In all assays, detached cells were retained by centrifugation of the culture vessel at 300×g for 10 minutes with a centrifuge rotor designed for culture plates. For detection of necrosis (dye exclusion of PI), the PI was added directly to the cell culture medium immediately before centrifugation of the culture vessel. For detection of apoptosis, ethanol was added directly to the cell culture medium to a final concentration of 70% immediately before the centrifugation. Afterward, the ethanol was carefully removed and the total cell population (attached plus sedimented detached cells) were stained with PI as described above.

[4] = tested on: primary rat AEC; details: for inhibition of amiodarone-induced apoptosis: captopril 500 ng/ml, saralasin 50 ug/ml, Losartan 5 pg/ml, amiodarone 2.5 ug/ml for chelerythrine, orthovanadate
Description: as §1, §2, §3

| SMILES | inhibition of ANGII-induced apoptosis of A549 cells [1] | effect on amiodarone-induced decrease in total cell number [2] | inhibition of apoptosis in response to amiodarone ([3]; A549) | inhibition of apoptosis in response to amiodarone ([4]; primary rat AEC) | inhibition of amiodarone-induced apoptosis [3] | inhibition of amiodarone-induced apoptosis [4] |
| --- | --- | --- | --- | --- | --- | --- |
| CCc1nc2c(C)cc(C)nc2n1Cc1ccc(-c2ccccc2-c2nn[nH]n2)cc1 [L158809] | could block |  |  |  |  |  |
| COc1ccc2c(c1OCc1ccccc1)C[C@@H](C(=O)O)N(C(=O)C(c1ccccc1)c1ccccc1)C2 [PD126055] | unable to significantly inhibit |  |  |  |  |  |
| COC(=O)C[C@H](NC(=O)[C@H](C)NC(=O)[C@@H](NC(=O)OCc1ccccc1)C(C)C)C(=O)CF [ZVAD-fmk, N-benzylcarboxy-Val-Ala-Asp-[O-Me]-CH2F] (Cbz-Val-Ala-Asp(OMe)-CH2F) |  | significantly inhibited | 81% | 97% |  |  |
| C[C@H](CS)C(=O)N1CCC[C@H]1C(=O)O [captopril] |  | significantly inhibited |  |  | inhibited | inhibited |
| CNCC(=O)N[C@@H](CCCN=C(N)N)C(=O)N[C@H](C(=O)N[C@@H](Cc1ccc(O)cc1)C(=O)N[C@H](C(=O)N[C@@H](Cc1cnc[nH]1)C(=O)N1CCC[C@H]1C(=O)N[C@@H](C)C(=O)O)C(C)C)C(C)C [saralasin] | completely inhibited | significantly inhibited |  |  | inhibited | inhibited |
